Test results from patent US12582654B2, “Cyano-substituted pyridine and cyano-substituted pyrimidine compound and preparation method therefor and application thereof” (BEIJING SCITECH-MQ PHARMACEUTICALS LIMITED, priority 2019, dated 2026).

Experiments:
[1] = molecular target: T1, Ba/F3 ETV6-FGFR4 cells (Homo sapiens, UniProt P22455); experiment: Inhibition of cell proliferation (CCK-8), Ba/F3 ETV6-FGFR4 cells; assay type: cell-based; conditions: 72 hours of incubation, read-out: Ba/F3 ETV6-FGFR4 IC50
T1 construct: fused on or other part: N-terminal part of ETV6 (TEL), the oligomerising partner that makes the FGFR4 kinase constitutively active; P41212 (Transcription factor ETV6)
Protocol: (§1) Compounds were assayed for inhibiting cell proliferation, and the specific method was as follows: • 1. Cells were cultured to a logarithmic growth phase, pipetted evenly, transferred to a 15 mL centrifuge tube, and centrifuged at 1000 rpm at room temperature for 4 minutes; • 2. The supernatant was discarded; 5 mL of complete medium was added and pipetted evenly; 10 μL of cell suspension was weighed, mixed well with 10 μL of 0.4% trypan blue, and counted under a cell counter; the proportion of living cells was ensured to be above 90%; • 3. The cell suspension was seeded into a 96-well plate (80 μL of cell suspension per well) according to the conditions shown in Table 5; in the outer 36 wells of the 96-well plate, no cells were added but only sterile water was added; only the inner 60 wells were used for cell assay and control; • 4. 5× compound dilution: the compounds were serially diluted 4-fold to give a total of 9 concentrations; 80-fold overall dilution was completed with complete medium, the resulting concentration was 5 times the final drug concentration, and DMSO concentration was 1.25%; • 5. 20 μL of the corresponding compounds with different concentrations were added to each well of assay wells of the 96-well plate; 20 μL of complete medium was added to positive and negative control wells and shaken well; and the final concentration of DMSO in each well was 0.25%; • 6. After 72 hours of incubation, 10 μL of CCK-8 reagent was added to each well and further incubated at 37° C. for 1-2 hours; and the OD value was read at 450 nm; 7. Cell survival rate (%)=[(As−Ab)/(Ac−Ab)]*100% • As: Assay well (medium containing cells, CCK-8, compound) • Ac: Control well (medium containing cells, CCK-8) • Ab: Blank well (medium without cell and compound, CCK-8) • 8. The values were imported into Graphpad Prism 5 software for IC50 calculation.

[2] = molecular target: T2, Ba/F3 ETV6-FGFR4-V550L cells (Homo sapiens, UniProt P22455, V550L, cells depend on it); experiment: Inhibition of cell proliferation (CCK-8), Ba/F3 ETV6-FGFR4-V550L cells; assay type: cell-based; conditions: 72 hours of incubation, read-out: Ba/F3 ETV6-FGFR4-V550L IC50
T2 construct: fused on or other part: N-terminal part of ETV6 (TEL), the oligomerising partner of the fusion; already named as the first entry; P41212 (Transcription factor ETV6)
Protocol: as §1

[3] = molecular target: FGFR4 kinase (Homo sapiens, UniProt P22455); experiment: Inhibition of FGFR4 kinase activity (ULight-labeled JAK-1 peptide, EU665/EU615 reading); assay type: biochemical; conditions: FGFR4 kinase 3.85 nM, ATP 100 μM, enzymatic reaction 2 hours
Protocol: (§2) Assay of activity of small molecule compounds on inhibiting FGFR4 kinase and FGFR4 V550L mutant kinase. The assay method was as follows:
(§3) 1) Dilution of Compounds:
(§4) In a 96-well plate a, the compounds were serially diluted 3-fold with DMSO to form 11 concentrations, and the 12th concentration was pure DMSO (as a positive control); In a new 96-well plate b, the above solutions were diluted 25-fold with ultrapure water (DMSO concentration was 4%).
(§5) 2) Transferring Compounds to a 384-Well Plate:
(§6) The above solutions of compounds diluted with ultrapure water in the 96-well plate b were pipetted into corresponding wells of a 384-well plate.
(§7) 3) Adding 4× kinase solution: 2.5 μl of the above 4× kinase solutions were pipetted with a multi-channel pipette into corresponding reaction wells of the 384-well plate, and the mixture was mixed well and pre-reacted at room temperature for 5 minutes.
(§8) 4) Adding 2× substrate/ATP mixture: 5 μl of the above 2× substrate/ATP mixtures were pipetted with a multi-channel pipette into corresponding reaction wells of the 384-well plate.
(§9) 5) Negative control: negative control wells were set up in the 384-well plate by adding 2.5 μl of 4× substrate, 2.5 μl of 4× enzyme solution, 2.5 μl of 1× kinase Assay Buffer and 2.5 μl of ultrapure water containing 4% DMSO to each well.
(§10) 6) Centrifuging, mixing well, and reacting at room temperature in the dark for 2 hours.
(§11) 7) Terminating the Enzymatic Reaction:
(§12) 5 μl of the above 4× stop solutions were pipetted into corresponding wells of the 384-well plate, and the mixture was centrifuged, mixed well, and then reacted at room temperature for 5 minutes.
(§13) 8) Development of the Reaction:
(§14) 5 μl of the above 4× detection solutions were pipetted into corresponding wells of the 384-well plate, and the mixture was centrifuged, mixed well, and then reacted at room temperature for 1 hour.
(§15) 9) The 384-well plate was placed into a plate reader, and the signal was detected using the appropriate program.
(§16) 10) Analysis of IC50: Reading of well=10000*EU665 value/EU615 value Inhibition rate=(reading of positive control well−reading of assay well)/(reading of positive control well−reading of negative control well)*100%
(§17) The corresponding IC50 can be calculated by inputting the drug concentrations and corresponding inhibition rates into GraphPad Prism 5 and processing.
Assay Conditions for Screening FGFR4 Kinase Activity Inhibitory Molecule:
The final concentration of FGFR4 kinase in the reaction system was 3.85 nM, the final concentration of ATP was 100 μM, the final concentration of substrate ULight™-labeled JAK-1 (Tyr1023) Peptide was 100 nM, and the time for enzymatic reaction was 2 hours.
The highest final concentration of the compound in the reaction system was 2.5 μM. After serial 3-fold dilution, there were 11 concentrations in total, and the lowest final concentration was 0.042 nM. The final concentration of DMSO was 1%.

[4] = molecular target: FGFR4 V550L kinase (Homo sapiens, UniProt P22455, V550L); experiment: Inhibition of FGFR4 V550L mutant kinase activity (ULight-labeled PolyGT, EU665/EU615 reading); assay type: biochemical; conditions: FGFR4 V550L kinase 1 nM, ATP 10 μM, enzymatic reaction 2 hours
Protocol: as §2, §3, §4, §5, §6, §7, §8, §9, §10, §11, §12, §13, §14, §15, §16, §17
Assay Conditions for Screening FGFR4 V550L Kinase Activity Inhibitory Molecule:
The final concentration of FGFR4 V550L kinase in the reaction system was 1 nM, the final concentration of ATP was 10 μM, the final concentration of substrate ULight™-labeled PolyGT was 100 nM, and the time for enzymatic reaction was 2 hours.
The highest final concentration of the compound in the reaction system was 2.5 μM. After seral 3-fold dilution, there were 11 concentrations in total, and the lowest final concentration was 0.042 nM. The final concentration of DMSO was 1%.

FGFR4 kinase, sequence (P22455 22-802): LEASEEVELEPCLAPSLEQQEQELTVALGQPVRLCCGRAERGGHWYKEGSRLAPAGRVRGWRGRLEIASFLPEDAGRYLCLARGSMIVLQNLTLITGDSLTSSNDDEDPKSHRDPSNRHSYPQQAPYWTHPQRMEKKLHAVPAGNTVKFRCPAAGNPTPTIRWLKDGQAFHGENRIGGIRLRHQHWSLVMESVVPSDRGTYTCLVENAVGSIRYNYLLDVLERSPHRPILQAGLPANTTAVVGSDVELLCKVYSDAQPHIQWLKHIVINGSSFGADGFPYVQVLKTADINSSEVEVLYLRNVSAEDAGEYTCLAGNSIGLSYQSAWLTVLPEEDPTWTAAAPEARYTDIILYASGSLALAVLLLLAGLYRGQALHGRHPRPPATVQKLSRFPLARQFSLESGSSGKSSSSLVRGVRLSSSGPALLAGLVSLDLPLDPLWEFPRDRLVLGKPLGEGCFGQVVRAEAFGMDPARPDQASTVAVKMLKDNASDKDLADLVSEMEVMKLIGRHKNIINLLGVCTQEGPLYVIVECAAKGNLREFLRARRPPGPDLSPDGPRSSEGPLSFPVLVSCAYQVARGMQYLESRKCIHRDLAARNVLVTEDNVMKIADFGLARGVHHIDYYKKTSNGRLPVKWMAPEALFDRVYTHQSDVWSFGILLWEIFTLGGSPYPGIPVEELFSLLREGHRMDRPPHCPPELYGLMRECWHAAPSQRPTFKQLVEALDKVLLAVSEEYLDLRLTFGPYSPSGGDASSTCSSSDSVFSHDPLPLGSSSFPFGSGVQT
T1 sequence (P22455 whole entry, change not shown, the tested form may be a part): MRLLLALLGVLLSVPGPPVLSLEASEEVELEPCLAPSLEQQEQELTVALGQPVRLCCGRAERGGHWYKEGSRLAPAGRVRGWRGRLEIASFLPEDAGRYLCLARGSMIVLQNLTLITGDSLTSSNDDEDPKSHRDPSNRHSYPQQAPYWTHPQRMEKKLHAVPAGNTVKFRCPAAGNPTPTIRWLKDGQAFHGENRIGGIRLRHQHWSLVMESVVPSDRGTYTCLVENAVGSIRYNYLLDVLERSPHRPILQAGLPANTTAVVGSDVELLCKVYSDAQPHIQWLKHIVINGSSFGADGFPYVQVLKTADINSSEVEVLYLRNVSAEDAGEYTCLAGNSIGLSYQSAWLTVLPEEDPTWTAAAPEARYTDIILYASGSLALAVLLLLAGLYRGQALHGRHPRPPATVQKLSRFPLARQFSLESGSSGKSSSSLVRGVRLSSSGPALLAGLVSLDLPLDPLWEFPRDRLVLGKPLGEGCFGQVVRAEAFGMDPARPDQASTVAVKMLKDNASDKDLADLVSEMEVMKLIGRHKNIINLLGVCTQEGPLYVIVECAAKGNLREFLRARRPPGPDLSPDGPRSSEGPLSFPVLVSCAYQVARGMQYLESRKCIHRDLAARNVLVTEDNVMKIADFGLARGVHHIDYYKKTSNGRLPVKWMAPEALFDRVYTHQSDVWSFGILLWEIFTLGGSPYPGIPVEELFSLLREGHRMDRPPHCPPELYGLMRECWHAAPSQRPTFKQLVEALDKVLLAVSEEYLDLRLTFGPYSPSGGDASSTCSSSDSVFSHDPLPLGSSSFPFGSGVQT
FGFR4 V550L kinase, sequence (P22455 22-802 V550L): as the sequence (P22455 22-802) above, with V529L counted along it
T2 sequence (P22455 whole entry V550L, the tested form may be a part): as the sequence (P22455 whole entry, change not shown, the tested form may be a part) above, with V550L counted along it

| GI50 [1] | GI50 [2] | IC50 [3] | IC50 [4] | Structure (SMILES) |
| --- | --- | --- | --- | --- |
| ≤ 0.01 µM | ≤ 0.01 µM | ≤ 0.01 µM | 0.01 to 0.05 µM | C=CC(=O)Nc1cc(N2CCC(N3CCC(C#N)CC3)CC2)ccc1Nc1ncc(C#N)c(Nc2ccccc2OC(C)C)n1 [Example 66, N-(2-((5-cyano-4-((2-isopropoxyphenyl)amino)pyrimidin-2-yl)amino)-5-(4-cyano-[1,4-bipiperidin]-1′-yl)phenyl) acrylamide] |
| ≤ 0.01 µM | ≤ 0.01 µM | ≤ 0.01 µM | 0.01 to 0.05 µM | C=CC(=O)Nc1cc(N2CCN(CC)CC2)ccc1Nc1ncc(C#N)c(Nc2ccc(OC)cc2OC(C)C)n1 [Example 31, N-(2-((5-cyano-4-((2-isopropoxy-4-methoxyphenyl)amino)pyrimidin-2-yl)amino)-5-(4-ethylpiperazin-1-yl)phenyl) acrylamide] |
| ≤ 0.01 µM | ≤ 0.01 µM | 0.01 to 0.05 µM | ≤ 0.01 µM | C=CC(=O)Nc1cc(N2CCN(C)CC2)ccc1Nc1ncc(C#N)c(Nc2ccccc2OC(C)C)n1 [Example 1, N-(2-((5-cyano-4-((2-isopropoxyphenyl)amino)pyrimidin-2-yl)amino)-5-(4-methylpiperazin-1-yl)phenyl)acrylamide] |
| ≤ 0.01 µM | ≤ 0.01 µM | 0.01 to 0.05 µM | ≤ 0.01 µM | C=CC(=O)Nc1cc(N2CCC(N(C)CC(C)(C)O)CC2)ccc1Nc1ncc(C#N)c(Nc2ccccc2OC(C)C)n1 [Example 67, N-(2-((5-cyano-4-((2-isopropoxyphenyl)amino)pyrimidin-2-yl)amino)-5-(4-((2-hydroxy-2-methylpropyl) (methyl)amino)piperidin-1-yl)phenyl) acrylamide] |
| ≤ 0.01 µM | ≤ 0.01 µM | 0.01 to 0.05 µM | ≤ 0.01 µM | C=CC(=O)Nc1cc(N2CCC(N(C)C)CC2)c(F)cc1Nc1ncc(C#N)c(Nc2ccccc2OC(C)C)n1 [Example 16, N-(2-((5-cyano-4-((2-isopropoxyphenyl)amino)pyrimidin-2-yl)amino)-5-(4-(dimethylamino)piperidin-1-yl)-4-fluorophenyl) acrylamide] |
| ≤ 0.01 µM | ≤ 0.01 µM | 0.01 to 0.05 µM | ≤ 0.01 µM | C=CC(=O)Nc1cc(N(C)CCN(C)C)ccc1Nc1ncc(C#N)c(Nc2ccccc2OC(C)C)n1 [Example 54] |
| ≤ 0.01 µM | 0.01 to 0.05 µM | 0.01 to 0.05 µM | 0.01 to 0.05 µM | C=CC(=O)Nc1cc(N2CCC(N3CCN(C)CC3)CC2)c(C)cc1Nc1ncc(C#N)c(Nc2ccccc2OC(C)C)n1 [Example 13, N-(2-((5-cyano-4-((2-isopropoxyphenyl)amino)pyrimidin-2-yl)amino)-4-methyl-5-(4-(4-methylpiperazin-1-yl)piperidin-1-yl)phenyl) acrylamide] |
| ≤ 0.01 µM | ≤ 0.01 µM | ≤ 0.01 µM | ≤ 0.01 µM | C=CC(=O)Nc1cc(N2CCC(N(C)CCSC)CC2)ccc1Nc1ncc(C#N)c(Nc2ccccc2OC(C)C)n1 [Example 73] |
| ≤ 0.01 µM | ≤ 0.01 µM | ≤ 0.01 µM | 0.01 to 0.05 µM | C=CC(=O)Nc1cc(N2CCC(N(C)C3CC3)CC2)ccc1Nc1ncc(C#N)c(Nc2ccccc2OC(C)C)n1 [Example 63, N-(2-((5-cyano-4-((2-isopropoxyphenyl)amino)pyrimidin-2-yl)amino)-5-(4-(cyclopropyl (methyl)amino)piperidin-1-yl)phenyl) acrylamide] |
| ≤ 0.01 µM | ≤ 0.01 µM | ≤ 0.01 µM | 0.01 to 0.05 µM | C=CC(=O)Nc1cc(N2CCC(N(C)C3COC3)CC2)ccc1Nc1ncc(C#N)c(Nc2ccccc2OC(C)C)n1 [Example 72, N-(2-((5-cyano-4-((2-isopropoxyphenyl)amino)pyrimidin-2-yl)amino)-5-(4-(methyl(oxetan-3-yl)amino)piperidin-1-yl)phenyl) acrylamide] |
| ≤ 0.01 µM | ≤ 0.01 µM | 0.01 to 0.05 µM | ≤ 0.01 µM | C=CC(=O)Nc1cc(N2CCC(N3CCC(O)CC3)CC2)ccc1Nc1ncc(C#N)c(Nc2ccccc2OC(C)C)n1 [Example 65, N-(2-((5-cyano-4-((2-isopropoxyphenyl)amino)pyrimidin-2-yl)amino)-5-(4-hydroxy-[1,4-bipiperidin]-1′-yl)phenyl) acrylamide] |
| 0.01 to 0.05 µM | 0.01 to 0.05 µM | 0.01 to 0.05 µM | 0.01 to 0.05 µM | C=CC(=O)Nc1cc(N2CCN(CC)CC2)ccc1Nc1ncc(C#N)c(Nc2ccc(C3CC3)cc2OC(C)C)n1 [Example 36, N-(2-((5-cyano-4-((4-cyclopropyl-2-isopropoxyphenyl)amino)pyrimidin-2-yl)amino)-5-(4-ethylpiperazin-1-yl)phenyl) acrylamide] |
| ≤ 0.01 µM | ≤ 0.01 µM | 0.01 to 0.05 µM | ≤ 0.01 µM | C=CC(=O)Nc1cc(N2CCC(N(C)CCOC)CC2)ccc1Nc1ncc(C#N)c(Nc2ccccc2OC(C)C)n1 [Example 56, N-(2-((5-cyano-4-((2-isopropoxyphenyl)amino)pyrimidin-2-yl)amino)-5-(4-((2-methoxyethyl) (methyl)amino)piperidin-1-yl)phenyl) acrylamide] |
| ≤ 0.01 µM | 0.01 to 0.05 µM | ≤ 0.01 µM | 0.05 to 0.1 µM | C=CC(=O)Nc1cc(N2CCC(N3CCC(F)(F)CC3)CC2)ccc1Nc1ncc(C#N)c(Nc2ccccc2OC(C)C)n1 [Example 71, N-(2-((5-cyano-4-((2-isopropoxyphenyl)amino)pyrimidin-2-yl)amino)-5-(4,4-difluoro-[1,4-bipiperidin]-1′-yl)phenyl) acrylamide] |
| ≤ 0.01 µM | ≤ 0.01 µM | ≤ 0.01 µM | ≤ 0.01 µM | C=CC(=O)Nc1cc(N2CCN(C3CCN(C)CC3)CC2)ccc1Nc1ncc(C#N)c(Nc2ccccc2OC(C)C)n1 [Example 49, N-(2-((5-cyano-4-((2-isopropoxyphenyl)amino)pyrimidin-2-yl)amino)-5-(4-(1-methylpiperidin-4-yl)piperazin-1-yl)phenyl) acrylamide] |
